In PMC9658668, “Phytochemical Variability, In Vitro and In Vivo Biological Investigations, and In Silico Antibacterial Mechanisms of Mentha piperita Essential Oils Collected from Two Different Regions in Morocco” (Foods, 2022):
Marks after values point to notes of the source that are not given here. Values belong to the compound of their own block, whether it stands above or below them.

Key:
[1] = DPPH radical-scavenging activity
Procedure: The essential oil of Mentha piperita was performed using a 1,1-diphenyl-2-picryl hydrazyl (DPPH) technique, as reported in Brand-Williams et al. with some changes. Briefly, a 2.5 mL aliquot of DPPH solution was mixed with 1.25 mL of the essential oil at a concentration of 1 mg/mL, and then the obtained solution was incubated at 25 °C for 30 min. The absorbance was measured at 517 nm.

[2] = Trolox equivalent antioxidant capacity (ABTS) assay
Procedure: The assay was carried out using the ABTS^+ method as described by Re et al. with some modifications. Briefly, the ABTS radical cation was generated by mixing 10 mL of 2 mM ABTS with 100 µL of potassium persulfate (2.45 mM). After the reaction mixture is kept in the dark at room temperature for 16 h, methanol is used to dilute the ABTS solution to obtain an absorbance of 0.700 at 734 nm. Two hundred µL of the essential (1 mg/mL) was mixed with 2 mL of diluted ABTS solution. The mixture was allowed to react for 1 min, and the absorbance was measured at 734 nm. Trolox is used as a reference standard. The results were expressed as an IC50 value (µg/mL).

H2O2-scavenging activity = assay: H2O2-scavenging activity
Procedure: The H2O2 radical scavenging activity of extracts was determined according to the method described by Ruch et al.. Briefly, 40 mM of H2O2 solution was prepared in phosphate buffer (pH 7.4). A total of 1 mL of M. piperita HE at a concentration of 1 mg/mL was added to 0.6 mL of H2O2 solution. The mixture was incubated at 25 °C for 10 min, and the absorbance of H2O2 was determined at 230 nm against a blank solution containing phosphate buffer without H2O2. The positive control used is Ascorbic acid. The H2O2 trapping capacity was expressed as an IC50 value (µg/mL).

[3] = system: carrageenan-induced rat paw edema; assay: Carrageenan-induced paw edema; assay type: in vivo, Wistar rats; settings: EO 100 mg/kg oral, indomethacin 10 mg/kg
Procedure: The studies were carried out on adult rats of the Wistar strain, obtained from the central animal facility of the Faculty of Medicine and Pharmacy of Rabat. These rats weighed between 200 and 250 g. The temperature was maintained at 20 °C with a lighting cycle of 12 h of light and 12 h of darkness. The study was approved by the Ethics Committee from Mohammed V University, (Protocol code # UA-2021-09; date of approval 27 May 2021).
The anti-inflammatory effects were studied using the carrageenan-induced paw edema method previously described by Musa G. Rege et al.. Briefly, Wistar rats (160 to 200 g) were randomly divided into […] (n = 6). The first two groups were orally administered with 100 mg/kg of M. pepirita EO. The third group was a negative control which received distilled water, while the last group was considered a positive control and received indomethacin (10 mg/kg) as the reference anti-inflammatory drug. After 60 min, all rats were injected subcutaneously with carrageenan solution (0.05 mL of 1% carrageenan suspended in 0.9% NaCl) into the subplantar region of the left hind paw. […] The anti-inflammatory effect is calculated using the following equation. In each group, the anti-inflammatory effect is measured by the percentage of edema inhibition (% INH) in paw volume, as follows: %INH = (mean [VL − VR] Control − mean [VL − VR] Treated)/[VL − VR] Control × 100 • With: VL: volume of the left paw. • VR: volume of the right paw.

E. coli ATCC 25922 = assay: MIC and MBC determination; assay type: cell-based, Escherichia coli; design: MBC: unit not given beside the values
Procedure: (§1) The antibacterial activity of M. piperita essential oils (MPEO) from Ouezzane and Azrou regions (Morocco) was evaluated against the following six bacterial strains: three gram-positive bacteria (Staphylococcus aureus ATCC 29213, Listeria monocytogenes ATCC 13932, Bacillus subtilis ATCC 6633), and three gram-negative bacteria (Escherichia coli ATCC 25922, Salmonella typhimurium ATCC 700408, and Pseudomonas aeruginosa ATCC 27853).
(§2) An inoculum of the frozen stock (−20 °C) was utilized to inoculate Mueller–Hinton Agar (Biokar, Beauvais, France), where it was incubated for 24 h at 37 °C to revive the bacteria. Then, an inoculum was removed from a bacterial colony and diluted to 0.5 McFarland in sterile salt water (0.9% NaCl) before being transferred to a sterile tube where the weighty particles were left to settle for 5 min. The top homogeneous solutions were transferred to a new, sterile tube and their concentration was adjusted to the 0.5 McFarland turbidity standard to obtain an inoculum of about […], which was used in the antibacterial testing
(§3) The minimum inhibitory concentration (MIC) is the lowest essential oil concentration that could prevent the growth of bacteria. […]
(§4) The MBC was determined to be the minimum concentration at which no growth occurred in the medium. […]

[4] = system: S. typhimurium ATCC 700408; assay: MIC and MBC determination; assay type: cell-based, Salmonella typhimurium
Procedure: as §1, §2
(§5) The minimum inhibitory concentration (MIC) is the lowest essential oil concentration that could prevent the growth of bacteria. The determination of MIC values against bacteria was conducted according to the previously reported procedure with a minor change, using Mueller–Hinton broth (Biokar, Beauvais, France) and bacteria. Twenty-four h of incubation was done at 37 °C. The antibiotic chloramphenicol served as a positive control. In sterile microtubes, two-fold serial dilutions of EO concentrations ranging from 4% to 0.0625 % (v/v) were made in Mueller–Hinton broth containing 5% of DMSO. […] Then, 5 µL of the previously produced bacterial suspension was added to each tube. Each suspension was homogenized and incubated for 24 h at 37 °C. As a first negative control, microtubes containing liquid medium and EO were used. […]
as §4

P. aeruginosa ATCC 27853 = assay: MIC and MBC determination; assay type: cell-based, Pseudomonas aeruginosa; design: unit not given beside the values; settings: chloramphenicol, unit not given
Procedure: as §1, §2, §3, §4

S. aureus ATCC 29213 = assay: MIC and MBC determination; assay type: cell-based, Staphylococcus aureus; design: MBC: unit not given beside the values
Procedure: as §1, §2, §3, §4

[5] = system: L. monocytogenes ATCC 13932; assay: MIC and MBC determination; assay type: cell-based, Listeria monocytogenes; design: MIC / MBC: unit not given beside the values
Procedure: as §1, §2, §5, §4

B. subtilis ATCC 6633 = assay: MIC and MBC determination; assay type: cell-based, Bacillus subtilis; design: MIC / MBC: unit not given beside the values
Procedure: as §1, §2, §5, §4

[6] = chloramphenicol, unit not given

DPPH IC50 [1]: 09.03 ± 0.02 ^a µg/mL | ABTS Test IC50 [2]: 74.81 ± 0.01 ^a µg/mL | H2O2 IC50 (H2O2-scavenging activity): 3.23 ± 0.08 ^a µg/mL
SMILES: O=C1O[C@H]([C@@H](O)CO)C(O)=C1O [Ascorbic acid]

SMILES: COc1ccc2c(c1)c(CC(=O)O)c(C)n2C(=O)c1ccc(Cl)cc1 [Indomethacin]
Mean Edema Volume (Left-Right Paw) ([3]; 1 h 30 min): 0.146 ± 0.04 mL | Percentage Inhibition of Edema ([3]; 1 h 30 min): 69.77% | Mean Edema Volume (Left-Right Paw) ([3]; 3 h): 0.178 ± 0.01 mL | Percentage Inhibition of Edema ([3]; 3 h): 70.23% | Mean Edema Volume (Left-Right Paw) ([3]; 6 h): 0.191 ± 0.01 mL | Percentage Inhibition of Edema ([3]; 6 h): 59.61%

MBC/MIC (E. coli ATCC 25922): 1.0 | MBC/MIC [4]: 1.0 | MIC [4, 6]: 64.0 | MIC (P. aeruginosa ATCC 27853): >64.0 | MBC/MIC (S. aureus ATCC 29213): 1.0 | MBC/MIC [5]: 1.0 | MIC [5, 6]: 2.0 | MBC/MIC (B. subtilis ATCC 6633): 1.0 | MIC (B. subtilis ATCC 6633; [6]): 32.0
SMILES: O=C(N[C@H](CO)[C@H](O)c1ccc([N+](=O)[O-])cc1)C(Cl)Cl [Chloramphenicol]
MBC (E. coli ATCC 25922; [6]): 8.0 | MBC [4, 6]: 64.0 | MBC (P. aeruginosa ATCC 27853): >64.0 | MBC (S. aureus ATCC 29213; [6]): 4.0 | MBC [5, 6]: 2.0 | MBC (B. subtilis ATCC 6633; [6]): 32.0
